From the supplement of paper PMC10307832

Tests used:
Test in all cases: relative viability (nuclei count vs DMSO), 5 days (fraction); higher = more cells survive
AZD8055 + OSI-027 = compound: COc1ccc(-c2ccc3c(N4CCOC[C@@H]4C)nc(N4CCOC[C@@H]4C)nc3n2)cc1CO [AZD8055] + COc1cccc2cc(-c3nc([C@H]4CC[C@H](C(=O)O)CC4)n4ncnc(N)c34)[nH]c12 [OSI-027] (partner 0.5 µM)
How it was run: (§1)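 One day after seeding in 1536-well plates, lung cancer cell lines were dosed by pin tool. Dosing was either single-drug or a fixed anchor-drug dose plus five library-drug doses (not always all listed) in √10 steps. After 5 days, nuclei were stained in one fix-and-stain step and counted on 4× images, and relative viability is the nuclei count of treated wells over that of vehicle wells, given as the median of duplicate plates.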

AZD8055 + Lapatinib = compound: COc1ccc(-c2ccc3c(N4CCOC[C@@H]4C)nc(N4CCOC[C@@H]4C)nc3n2)cc1CO [AZD8055] + CS(=O)(=O)CCNCc1ccc(-c2ccc3ncnc(Nc4ccc(OCc5cccc(F)c5)c(Cl)c4)c3c2)o1 [Lapatinib] (partner 2 µM)
How it was run: as §1

AZD8055 + Linsitinib = compound: COc1ccc(-c2ccc3c(N4CCOC[C@@H]4C)nc(N4CCOC[C@@H]4C)nc3n2)cc1CO [AZD8055] + C[C@]1(O)C[C@@H](c2nc(-c3ccc4ccc(-c5ccccc5)nc4c3)c3c(N)nccn32)C1 [Linsitinib] (partner 1 µM)
How it was run: as §1

AZD8055 + Alpelisib = compound: COc1ccc(-c2ccc3c(N4CCOC[C@@H]4C)nc(N4CCOC[C@@H]4C)nc3n2)cc1CO [AZD8055] + Cc1nc(NC(=O)N2CCC[C@H]2C(N)=O)sc1-c1ccnc(C(C)(C)C(F)(F)F)c1 [Alpelisib] (partner 2 µM)
How it was run: as §1

| Cell Line | relative viability (AZD8055 + OSI-027; first compound 0.01 µM) | relative viability (AZD8055 + OSI-027; first compound 0.03162 µM) | relative viability (AZD8055 + OSI-027; first compound 0.1 µM) | relative viability (AZD8055 + OSI-027; first compound 0.3162 µM) | relative viability (AZD8055 + OSI-027; first compound 1 µM) | relative viability (AZD8055 + Lapatinib; first compound 0.01 µM) | relative viability (AZD8055 + Lapatinib; first compound 0.03162 µM) | relative viability (AZD8055 + Lapatinib; first compound 0.1 µM) | relative viability (AZD8055 + Lapatinib; first compound 0.3162 µM) | relative viability (AZD8055 + Lapatinib; first compound 1 µM) | relative viability (AZD8055 + Linsitinib; first compound 0.01 µM) | relative viability (AZD8055 + Linsitinib; first compound 0.03162 µM) | relative viability (AZD8055 + Linsitinib; first compound 0.1 µM) | relative viability (AZD8055 + Linsitinib; first compound 0.3162 µM) | relative viability (AZD8055 + Linsitinib; first compound 1 µM) | relative viability (AZD8055 + Alpelisib; first compound 0.01 µM) | relative viability (AZD8055 + Alpelisib; first compound 0.03162 µM) | relative viability (AZD8055 + Alpelisib; first compound 0.1 µM) | relative viability (AZD8055 + Alpelisib; first compound 0.3162 µM) | relative viability (AZD8055 + Alpelisib; first compound 1 µM) |
| --- | --- | --- | --- | --- | --- | --- | --- | --- | --- | --- | --- | --- | --- | --- | --- | --- | --- | --- | --- | --- |
| 201T | 0.786 | 0.746 | 0.676 | 0.484 | 0.383 | 1.01 | 1.04 | 0.986 | 0.788 | 0.7 | 0.997 | 0.906 | 0.758 | 0.609 | 0.554 | 0.987 | 0.911 | 0.775 | 0.611 | 0.569 |
| A549 |  |  |  |  |  | 0.801 | 0.651 | 0.404 | 0.307 | 0.122 | 0.552 | 0.382 | 0.246 | 0.11 | 0.0862 | 0.524 | 0.373 | 0.223 | 0.0986 | 0.109 |
| A-427 | 0.49 | 0.491 | 0.545 | 0.493 | 0.434 | 1.12 | 1.03 | 0.865 | 0.665 | 0.546 | 1.13 | 0.95 | 0.927 | 0.783 | 0.547 | 1.22 | 0.999 | 0.939 | 0.674 | 0.519 |
| ABC-1 | 0.537 | 0.551 | 0.635 | 0.345 | 0.36 | 1.2 | 0.939 | 1.2 | 0.652 | 0.611 | 0.845 | 0.484 | 0.551 | 0.425 | 0.323 | 0.897 | 0.847 | 0.65 | 0.404 | 0.515 |
| BEN | 0.308 | 0.374 | 0.322 | 0.291 | 0.251 | 0.607 | 0.402 | 0.353 | 0.317 | 0.304 | 0.955 | 0.574 | 0.41 | 0.325 | 0.279 | 1.06 | 0.593 | 0.391 | 0.341 | 0.338 |
| CAL-12T | 0.717 | 0.738 | 0.614 | 0.208 | 0.26 | 0.67 | 0.601 | 0.369 | 0.37 | 0.343 | 0.84 | 0.658 | 0.465 | 0.211 | 0.258 | 1.15 | 1.1 | 0.91 | 0.337 | 0.17 |
| COR-L23 | 0.765 | 0.588 | 0.526 | 0.297 | 0.256 | 1.36 | 0.804 | 0.741 | 0.33 | 0.219 | 0.977 | 0.578 | 0.392 | 0.152 | 0.14 | 0.837 | 0.551 | 0.395 | 0.155 | 0.154 |
| COR-L 105 | 0.682 | 0.702 | 0.615 | 0.382 | 0.383 | 0.353 | 0.284 | 0.318 | 0.346 | 0.389 | 0.833 | 0.941 | 0.5 | 0.315 | 0.297 | 0.975 | 0.737 | 0.798 | 0.271 | 0.315 |
| Calu-6 |  |  |  |  |  | 1.22 | 0.926 | 0.816 | 0.718 | 0.485 | 1.09 | 0.77 | 0.637 | 0.356 | 0.329 | 0.911 | 0.69 | 0.524 | 0.399 | 0.339 |
| ChaGo-K-1 | 0.584 | 0.576 | 0.624 | 0.56 | 0.541 |  |  |  |  |  |  |  |  |  |  |  |  |  |  |  |
| EBC-1 |  |  |  |  |  | 0.214 | 0.213 | 0.219 | 0.231 | 0.199 | 1.06 | 0.724 | 0.437 | 0.235 | 0.16 | 0.827 | 0.421 | 0.373 | 0.265 | 0.259 |
| EKVX | 0.753 | 0.745 | 0.665 | 0.51 | 0.411 | 0.193 | 0.181 | 0.155 | 0.132 | 0.132 | 1.05 | 0.947 | 0.604 | 0.384 | 0.24 | 0.94 | 0.834 | 0.587 | 0.34 | 0.401 |
| EMC-BAC-2 | 0.364 | 0.387 | 0.358 | 0.291 | 0.284 | 0.867 | 0.777 | 0.74 | 0.403 | 0.406 | 0.784 | 0.65 | 0.53 | 0.337 | 0.3 | 0.706 | 0.663 | 0.469 | 0.281 | 0.297 |
| EPLC-272H | 0.252 | 0.255 | 0.28 | 0.228 | 0.243 | 0.735 | 0.75 | 0.549 | 0.471 | 0.459 | 1.1 | 0.926 | 0.669 | 0.404 | 0.373 | 0.927 | 0.754 | 0.546 | 0.445 | 0.404 |
| H3255 | 0.706 | 0.572 | 0.587 | 0.454 | 0.423 | 0.228 | 0.209 | 0.227 | 0.212 | 0.229 | 0.925 | 0.858 | 0.63 | 0.468 | 0.277 | 0.683 | 0.657 | 0.499 | 0.275 | 0.322 |
| HARA | 0.612 | 0.641 | 0.419 | 0.419 | 0.249 | 0.75 | 0.614 | 0.408 | 0.326 | 0.224 | 0.942 | 0.998 | 0.517 | 0.303 | 0.202 | 0.786 | 0.744 | 0.376 | 0.222 | 0.252 |
| HCC-15 | 0.805 | 0.732 | 0.658 | 0.38 | 0.303 | 0.834 | 0.877 | 0.886 | 0.474 | 0.333 | 0.778 | 0.808 | 0.644 | 0.467 | 0.29 | 0.86 | 0.769 | 0.639 | 0.366 | 0.282 |
